Columns and labels:
[1] = tested on: TNF-α; assay: TNF-α release from LPS-activated BV2 microglia (sandwich ELISA); type: cell-based, mouse; details: LPS 100 ng/ml, compound 1 h before LPS
[2] = tested on: nitric oxide [산화질소]; assay: Nitric oxide production by LPS-activated BV2 microglia (Griess reaction); type: cell-based, mouse; details: LPS 100 ng/ml, compound 1 h before LPS
[3] = tested on: IL-6; assay: IL-6 production by LPS-activated BV2 microglia (sandwich ELISA); type: cell-based, mouse; details: LPS 100 ng/ml, compound 1 h before LPS
[4] = tested on: IL-10; assay: IL-10 production by LPS-activated BV2 microglia (sandwich ELISA); type: cell-based, mouse; details: LPS 100 ng/ml, compound 1 h before LPS
[5] = tested on: intracellular reactive oxygen species [세포내 활성산소종 (reactive oxygen species; ROS)]; assay: Intracellular reactive oxygen species in LPS-activated BV2 microglia (H2DCF-DA fluorescence); type: cell-based, mouse
[6] = tested on: JNK; assay: JNK activation in LPS-activated BV2 microglia (western blot, p-JNK); type: cell-based, mouse; details: LPS 100 ng/ml 3 h, compound 1 h before LPS
[7] = tested on: ERK; assay: ERK activation in LPS-activated BV2 microglia (western blot, p-ERK); type: cell-based, mouse; details: LPS 100 ng/ml 3 h, compound 1 h before LPS
[8] = tested on: p38; assay: p38 activation in LPS-activated BV2 microglia (western blot, p-p38); type: cell-based, mouse; details: LPS 100 ng/ml 3 h, compound 1 h before LPS
[9] = tested on: MK2; assay: MK2 activation in LPS-activated BV2 microglia (western blot, p-MK2); type: cell-based, mouse; details: LPS 100 ng/ml 3 h, compound 1 h before LPS
[10] = tested on: NF-κB; assay: NF-κB DNA complex formation in LPS-activated BV2 microglia (EMSA); type: cell-based, mouse; details: LPS 100 ng/ml 3 h, compound 1 h before LPS
[11] = tested on: AP-1; assay: AP-1 DNA complex formation in LPS-activated BV2 microglia (EMSA); type: cell-based, mouse; details: LPS 100 ng/ml 3 h, compound 1 h before LPS
[12] = tested on: TNF-α; assay: Serum TNF-α in LPS systemic inflammation mice (sandwich ELISA); type: in vivo, mouse; details: 3 h after LPS
[13] = tested on: TNF-α; assay: Cerebrospinal fluid TNF-α in LPS systemic inflammation mice (sandwich ELISA); type: in vivo, mouse; details: vs vehicle
[14] = tested on: TNF-α; assay: TNF-α protein expression in cerebral cortex of LPS systemic inflammation mice (western blot); type: in vivo, mouse; details: 3 h after LPS, vs vehicle
[15] = tested on: IL-1β; assay: IL-1β protein expression in cerebral cortex of LPS systemic inflammation mice (western blot); type: in vivo, mouse; details: 3 h after LPS, vs vehicle
[16] = tested on: microglia [소교세포]; assay: Microglial activation in cerebral cortex of LPS systemic inflammation mice (Iba1 immunofluorescence); type: in vivo, mouse; details: 3 h after LPS
[17] = Brain infarct volume in ischemic stroke model MCAo/Rep (TTC staining); type: in vivo, rat; details: 5 mg/kg i.p. once immediately after reperfusion, 22 h after reperfusion
[18] = Neurological score in ischemic stroke model MCAo/Rep; type: in vivo, rat; details: 5 mg/kg i.p. once immediately after reperfusion; vs control; P=0.0047
[19] = tested on: brain cells [뇌세포]; assay: Brain cell damage in ischemic stroke model MCAo/Rep (Nissl staining); type: in vivo, rat; details: 5 mg/kg i.p. once immediately after reperfusion; cortex and striatum; 22 h after reperfusion
[20] = tested on: microglia [소교세포]; assay: Microglial activation in ischemic stroke model MCAo/Rep (Iba-1 immunohistochemistry); type: in vivo, rat; details: 5 mg/kg i.p. once immediately after reperfusion; stroke hemisphere; 22 h after reperfusion; stroke control 138.8±7.4; P<0.01
[21] = tested on: TNF-α; assay: TNF-α producing cells in ischemic stroke model MCAo/Rep (immunohistochemistry); type: in vivo, rat; details: 5 mg/kg i.p. once immediately after reperfusion; stroke hemisphere; 22 h after reperfusion; stroke control 648.3±64.70; P<0.05

COc1ccc(S(=O)(=O)N2Cc3ccccc3C[C@@H]2C(=O)NO)cc1 [본 발명의 화합물, (3R)-(+)-[2-(4-메톡시벤젠설포닐)-1,2,3,4-테트라하이드로이소퀴놀린-3-하이드록사메이트]
TNF-α production [1]: 현저하게 감소됨 | nitric oxide production [2]: 농도 의존적으로 억제됨 | IL-6 production [3]: 농도 의존적으로 억제됨 | IL-10 production [4]: 생성을 증가시키는 것 | intracellular reactive oxygen species ([5]; compound at 10 μM or more, compared with control): 대조군과 유사한 수준으로 감소됨 | intracellular reactive oxygen species ([5]; concentration dependence): 농도 의존적으로 억제함 | activated JNK [6]: 농도 의존적으로 감소함 | activated ERK [7]: 농도 의존적으로 감소함 | activated p38 [8]: 농도 의존적으로 감소함 | activated MK2 [9]: 농도 의존적으로 감소함 | NF-κB complex formation [10]: 감소됨 | AP-1 complex formation [11]: 감소됨 | serum TNF-α level ([12]; 5 mg/kg i.p. daily from 4 days before LPS 5 mg/kg i.p.): 현저히 감소 | serum TNF-α level ([12]; 1 and 5 mg/kg i.p. daily from 4 days before LPS 5 mg/kg i.p., dose dependence): 용량의존적으로 TNF-α수준이 감소 | cerebrospinal fluid TNF-α level ([13]; 1 mg/kg i.p. daily from 4 days before LPS): 통계적으로 의미있는 TNF-α발현 감소 | cerebrospinal fluid TNF-α level ([13]; 5 mg/kg i.p. daily from 4 days before LPS): 통계적으로 의미있는 TNF-α발현 감소 | TNF-α expression in cerebral cortex ([14]; 1 mg/kg i.p.): 비이클 투여와 차이가 없었으나 | decrease of TNF-α expression in cerebral cortex ([14]; 5 mg/kg i.p.): 40% | IL-1β expression in cerebral cortex ([15]; 1 mg/kg i.p.): 비이클 투여와 차이가 없었으나 | decrease of IL-1β expression in cerebral cortex ([15]; 5 mg/kg i.p.): 50% | number of activated microglia ([16]; 1 mg/kg i.p., vs vehicle): 비이클 투여와 차이가 없었으나 | number of activated Iba1-labelled cells (microglia) ([16]; 5 mg/kg i.p., area 500 μm2, control 10.12±1.45, LPS 41.17±2.95, p<0.01 vs vehicle): 20.0±3.82 | infarct volume (infarct volume / whole brain volume × 100) ([17]; MCAo/Rep control 29.17%): 18.90% | decrease of infarct size vs control ([17]; P=0.0452): ~35.21% | neurological score (maximum 18) [18]: 유의적 감소 | brain cell damage by stroke [19]: 극명하게 감소 | number of activated microglia [20]: 47.67±10.73 cells | number of TNF-α producing cells [21]: 402.8±74.73 cells

— patent KR20140134170A, “신경염증 질환의 예방 또는 치료용 약학 조성물” (이화여자대학교 산학협력단, priority 2013, dated 2014)
